# Values of other authors as cited in patent US7125886B2, “5-HT3 receptor antagonists and methods of use” (Aryx Therapeutics, priority 2002, dated 2006).
# Tests used:
# 5-HT3 receptor = target: T1, 5-HT3 receptor (Homo sapiens, UniProt P46098)
# T1 sequence (P46098 24-478): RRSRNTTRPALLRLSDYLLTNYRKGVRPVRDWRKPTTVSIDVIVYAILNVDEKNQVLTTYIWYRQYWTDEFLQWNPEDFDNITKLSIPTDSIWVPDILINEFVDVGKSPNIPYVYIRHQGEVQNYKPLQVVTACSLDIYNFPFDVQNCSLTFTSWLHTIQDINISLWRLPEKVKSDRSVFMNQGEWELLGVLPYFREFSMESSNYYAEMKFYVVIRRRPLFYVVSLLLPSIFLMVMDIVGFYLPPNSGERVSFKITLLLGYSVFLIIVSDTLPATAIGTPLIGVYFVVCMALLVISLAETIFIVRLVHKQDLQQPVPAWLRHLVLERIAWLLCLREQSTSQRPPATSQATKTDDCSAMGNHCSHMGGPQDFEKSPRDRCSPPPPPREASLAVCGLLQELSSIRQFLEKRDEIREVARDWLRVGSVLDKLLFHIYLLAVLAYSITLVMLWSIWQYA
# [1] = received by the FDA
# [2] = at least 12 weeks of treatment, patients with IBS
# [3] = up to 3 months of treatment; versus placebo and mebeverine
smiles,measurement,setting,value
Cc1[nH]cnc1CN1CCc2c(c3cccc(O)c3n2C)C1=O [6-Hydroxy-alosetron],potency relative to alosetron,5-HT3 receptor,twice as potent as alosetron
Cc1[nH]cnc1CN1CCc2c(c3cccc(O[C@@H]4O[C@H](C(=O)O)[C@@H](O)[C@H](O)[C@H]4O)c3n2C)C1=O [6-OH-alosetron glucuronide],5-HT3 receptor binding affinity,5-HT3 receptor,potent
"Cc1[nH]cnc1CN1CCc2c(c3ccccc3n2C)C1=O [Alosetron, 2,3,4,5-tetrahydro-5-methyl-2-[(5-methyl-1H-imidazol-4-yl)methyl]-1H-pyrido [4,3-b]indol-1-one]",reports of deaths associated with alosetron,[1],3
same,"constipation, patients with adverse event",[2],28%
same,"improving perception of visceral pain, spasms and diarrhea",[3],significantly superior
same,greater drug exposure in females than males,females compared with males,60%
same,mean peak plasma concentration higher in females,females compared with males,45–100%
same,half-life,in vivo,1.5 h
same,oral bioavailability,oral,approximately 60%
